pKd: −log10 of the molar value. Entries after “also recorded” stand apart in the source; their conditions may differ. Where a SMILES comes first, the peptide text is derived from it. [ ]: non-standard residue; d: D form. The star is where a group is joined. FITC = O=C1OC2(c3ccc(O)cc3Oc3cc(O)ccc32)c2ccc(NC(=S)*)cc21; pY = N[C@@H](Cc1ccc(OP(=O)(O)O)cc1)C(=O)O
Assays:
macrophages = settings: cited from earlier work
Source text: (§1) Gene expression studies in colon cancer patients have shown a correlation between Ack1 expression and the extent of immune cell infiltration. Ack1 is required for apoptosis induced by TRAIL, an apoptosis-promoting factor [25], and dysregulation of Ack1 is linked to abnormal apoptotic activity. Ack1 promotes the activation of the Toll-like receptor (TLR) family members TLR4, TLR7, and TLR9 in macrophages and dendritic cells. A small molecule inhibitor of Ack1 (AIM-100) re ...

Ack1 = settings: mice treated with a TLR7 ligand; cited from earlier work
Source text: as §1, with “It is increasingly clear that Mer plays a crucial role in the macrophage-mediated phagocytosis of apoptotic cells. […] Gas6 has a Gla domain at its N-terminus and binds to Mer and other TAMs to promote tyrosine kinase activity. […] Gene” for “Gene”

Mer kinase domain = target: T1, Mer kinase domain (Homo sapiens, UniProt Q12866); assay: Fluorescence polarization binding of fluorescein-labeled phosphopeptides to Mer kinase domain
T1 construct: His tag; host or cells: E. coli YGT cells co-expressing YopH tyrosine phosphatase and GroEL
T1 sequence (Q12866 587-858 limits assumed): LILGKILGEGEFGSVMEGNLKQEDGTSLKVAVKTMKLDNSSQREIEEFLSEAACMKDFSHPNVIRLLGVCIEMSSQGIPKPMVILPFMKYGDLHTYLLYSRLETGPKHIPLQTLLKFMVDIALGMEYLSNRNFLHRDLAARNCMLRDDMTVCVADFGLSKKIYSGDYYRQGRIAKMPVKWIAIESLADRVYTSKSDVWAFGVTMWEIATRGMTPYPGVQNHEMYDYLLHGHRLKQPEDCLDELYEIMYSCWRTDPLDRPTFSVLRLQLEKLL
Experimental: (§2) Figure 4. Ack1 MHR-derived peptides. (A) Position of the MHR domain in Ack1. The expanded sequences show an alignment between Mig6 and the MHR of Ack1, with Y859–Y860 in yellow. Asterisks indicate conserved residues. (B) Phosphorylation of MHR-derived peptides (100 μM) by Mer was measured using the phosphocellulose paper binding assay (SEM error bars). (C) Binding of fluorescein-labeled pY860 peptide to Mer kinase domain was measured by fluorescence polarization.
To confirm the interaction between pY860 and Mer, we attached fluorescein to the N-terminus of peptide pY860 and measured fluorescence polarization in the presence of increasing concentrations of Mer catalytic domain (Figure 4C).
Phosphotyrosine-containing peptides were fluorescently labeled by reaction with fluorescein isothiocyanate (5 molar equivalents) in 100 mM potassium phosphate buffer (pH 7.0) for 1 h at room temperature. The fluorescent peptides were purified by gel filtration chromatography on G15 Sephadex. Fluorescence polarization was measured in a Wallac1420 Victor2 instrument using 96-well half area black plates (Thermo Fisher, Waltham, MA, USA). The excitation filter was 485 nm, and the emission filter was 535 nm. Measurements were performed in volumes of 50 μL using a buffer of 50 mM Tris (pH 7.4), with peptide concentrations of 0.25 μM or 0.5 μM. The data were analyzed with Origin software (Origin v.7).

[1] = target: fluorescein-labeled Ack1 MHR peptide pY860; assay: fluorescence polarisation; fluorescein-labelled phosphopeptide at 0.25 or 0.5 uM, increasing concentrations of Mer catalytic domain; 50 mM Tris pH 7.4, 50 uL; apparent Kd
Mer kinase = assay: Phosphocellulose paper binding assay: phosphorylation of MHR-derived peptides by Mer; assay type: biochemical, human; settings: peptide 100 μM; [γ-32P]ATP; purified Mer kinase domain; 30 °C
Experimental: as §2
For IP-kinase assays, cell lysates (1 mg protein) were incubated with 30 μL of EZview red anti-FLAG M2 affinity resin at 4 °C for 4 h-overnight, then washed three times with Tris-buffered saline. A portion of each sample was eluted with SDS-PAGE sample buffer and analyzed by anti-Flag Western blotting. […]
Synthetic peptides and phosphopeptides were purchased from Genemed Synthesis Inc., San Antonio, TX, USA and were purified by semipreparative HPLC on a Vydac C18 column. Peptide phosphorylation was measured using the phosphocellulose paper binding assay with [γ-^32P] […] In this assay, the production of ADP was coupled to the oxidation of NADH, which was measured as a reduction in absorbance at 340 nm. […] Absorbance data were recorded every 8 s. Kinetic constants were determined by nonlinear fitting to the initial velocity vs. (substrate) curves using GraphPad Prism, San Diego, CA, USA (v.9).

In the case of `c1ccc(-c2oc3ncnc(NC[C@@H]4CCCO4)c3c2-c2ccccc2)cc1` [AIM-100], the “Effect on TLR-mediated activation of macrophages” value (macrophages) is given as “reduced” and the “Effect on lupus symptoms / lupus-like phenotype” value (Ack1) is given as “mitigated the lupus symptoms; also recorded: diminishing the lupus-like phenotype”.
Compound `CC(C)C[C@H](NC(=O)[C@H](Cc1ccc(OP(=O)(O)O)cc1)NC(=O)[C@H](Cc1ccc(O)cc1)NC(=O)[C@H](Cc1c[nH]cn1)NC(=O)[C@@H](NC(=O)[C@H](CO)NC(=O)[C@H](CO)NC(=O)[C@@H](NC(=O)[C@H](CCCCN)NC(=O)[C@H](CCCCN)NC(=O)CNC(=O)[C@H](CC(=O)O)NC(=O)[C@H](CCCNC(=N)N)NC(=S)Nc1ccc2c(c1)C(=O)OC21c2ccc(O)cc2Oc2cc(O)ccc21)C(C)C)[C@@H](C)O)C(=O)N[C@@H](CC(C)C)C(=O)N1CCC[C@H]1C(=O)N[C@@H](CCC(=O)O)C(=O)O` [pY860] ({FITC}-RDGKKVSSTHY[pY]LLPE-OH) has a pKd (Mer kinase domain) of 5.27.
In the case of “His-tagged Mer kinase domain (from UniProt Q12866 587-858) (domain or fragment)”, the pKd [1] was 5.27.
For “RDGKKVSSTHpYYLLPE [pY859, Ack1 MHR-derived phosphopeptide containing phosphorylated Y859]”, the “Binding of peptide to Mer (fluorescence polarization)” value (Mer kinase domain; fluorescein-labeled peptide, 50 mM Tris pH 7.4, peptide 0.25 or 0.5 μM) was “below the detection limit; also recorded: poor binding”.
For “RLSSSPGKTMPTTQSFASDPKYA [MHR1, Ack1 MHR-derived synthetic peptide containing Y827]”, the “Phosphorylation of peptide by Mer (substrate quality)” value (Mer kinase) was “not a good substrate”.

Source: article PMC10473914, “Phosphorylation of Ack1 by the Receptor Tyrosine Kinase Mer” (Kinases and phosphatases, 2023)
